The values below come from patent US5721240A, “9-substituted-8-unsubstituted-9-deazaguanines” (BioCryst Pharmaceuticals, Inc., priority 1996, dated 1998).

In general, IC50 refers to the concentration at which inhibition is half-maximal.

One experiment has as its system plasma inosine. Put plainly: Effects on blood plasma levels of inosine in rats. The format is in vivo, Lewis rats. The following applies: i.p.; for Inosine Concentration: rat, 4 mg/kg. How it is done: An effective method of evaluating in vivo effects of PNP inhibitors is to evaluate the level of plasma nucleosides following the administration of inhibitor. In particular, it has been shown that certain PNP inhibitors, which increase blood plasma levels of inosine, were subsequently found to prolong skin allograf survival.
Control groups are used which receive only the vehicle. At specific times after administration, the animals are sacrificed and plasma samples are prepared. The plasma is extracted with cold 0.5 N HClO4 and neutralized with solid NH4 HCO3. After removal of perchlorate salts, the extract is subjected to HPLC on a reversed phase column (Spherisorb ODSI).

The subject of a further experiment is CCRF-CEM Cells. Briefly: 2'-deoxyguanosine potentiation assay (cell growth inhibition of CCRF-CEM cells with d-Guo). In kind it is cell-based. As to conditions: Homo sapiens, + 2'-d-Guanosine 5.62 uM, 72 hours. How it is done:
The potentiation of the cell growth inhibitory activity (cytotoxicity) of 2'-deoxyguanosine (d-Guo) by the compounds of the invention is determined as follows: CCRF-CEM cells are grown in RPMI-1640 medium. To suspension cultures of these cells, d-Guo at a fixed concentration (5.62 μM) and the candidate PNP inhibitor at varied concentrations are added and the number of cells are determined in a Coulter counter 24, 48, and 72 hours thereafter. […] This method is similar to that previously used to determine the effectiveness of PNP inhibitors on potentiation of the toxicity of d-Guo [D. A. Shewach et al., Cancer Res., 46, 519 (1986); J. C. Sircar et al., Agents and Actions, 21, 253 (1987)].

Another experiment deals with T1, PNP (Calf spleen) (Bos taurus, UniProt P55859).
T1 construct: using calf spleen as the enzyme source; from tissue; host or cells: calf spleen
T1 sequence (P55859 1-289): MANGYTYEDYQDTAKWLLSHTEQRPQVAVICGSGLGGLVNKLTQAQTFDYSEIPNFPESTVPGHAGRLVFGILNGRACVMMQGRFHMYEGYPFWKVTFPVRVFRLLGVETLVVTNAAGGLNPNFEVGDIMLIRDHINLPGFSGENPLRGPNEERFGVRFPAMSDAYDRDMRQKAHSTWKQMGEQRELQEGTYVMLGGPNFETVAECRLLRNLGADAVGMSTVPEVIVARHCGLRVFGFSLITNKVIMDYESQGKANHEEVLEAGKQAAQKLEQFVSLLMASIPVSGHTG
Put plainly: in vitro PNP inhibition assay (radiochemical, [14C]-hypoxanthine formation from [14C]-inosine). The format is biochemical.

[1] abbreviates: read-out: PNP (Calf spleen) IC50.
Setting [2] is: 8-unsubstituted compounds, calf spleen enzyme, 50 mM phosphate, read-out: PNP (Calf spleen) IC50.
The mark [3] stands for this setting: 8-amino-substituted comparison compounds.

Read-outs that look alike come from different tables or passages of the source. Some results are limits rather than exact numbers.

Take `Nc1nc2c(Cc3ccccc3)c[nH]c2c(=O)[nH]1` [Example 2c, 2-Amino-3,5-dihydro-7-(phenylmethyl)-4H-pyrrolo-[3,2-d]pyrimidin-4-one]: the “increase in plasma inosine” value with plasma inosine (Lewis rats, summary in words) is given as “significant increase in plasma inosine”. Also, the “Inosine Concentration” value in the experiment on plasma inosine (0.50 hrs, Exp 1) turned out to be 3 μMO; in the experiment with plasma inosine (0.50 hrs, Exp 3) it was 10 μMO; in the experiment with plasma inosine (1.0 hrs, Exp 1), 7 μMO; in the experiment on plasma inosine (1.0 hrs, Exp 3), 7 μMO; in the experiment on plasma inosine (1.5 hrs, Exp 3) it was 6 μMO; in the experiment on plasma inosine (1.5 hrs, Exp 7, listed as SRI 7109, 4 mg/kg), 6 μMO. Besides, the “Inosine Concentration” value was 4 μMO in the experiment on plasma inosine (2.0 hrs, Exp 3); 4 μMO in the experiment on plasma inosine (3.0 hrs, Exp 1); 6 μMO with plasma inosine (3.0 hrs, Exp 3); 6 μMO with plasma inosine (3.0 hrs, Exp 7, listed as SRI 7109, 4 mg/kg); 3 μMO in the experiment with plasma inosine (4.0 hrs, Exp 2); 2 μMO with plasma inosine (5.0 hrs, Exp 2). Also, the “Inosine Concentration” value in the experiment on plasma inosine (6.0 hrs, Exp 2) is 0.5 μMO; in the experiment on plasma inosine (8.0 hrs, Exp 2), 0.6 μMO; in the experiment with plasma inosine (10.0 hrs, Exp 2) it was 0.3 μMO; in the experiment with plasma inosine (24 hrs, Exp 1), 0.3 μMO. In the experiment with CCRF-CEM Cells (8-unsubstituted compounds), the IC50 turned out to be 0.6 µM.

For the compound `Nc1nc2c(Cc3ccco3)c[nH]c2c(=O)[nH]1` [Example 2j, 2-Amino-3,5-dihydro-7-(2-furanylmethyl)-4H-pyrrolo-[3,2-d]pyrimidin-4-one], the half-inhibitory concentration (IC50) in the experiment with CCRF-CEM Cells (8-unsubstituted compounds) came to 2.3 µM; on PNP (Calf spleen) (setting [1]), 0.31 µM.

For the compound `Nc1nc2c(Cc3ccc(Cl)cc3)c[nH]c2c(=O)[nH]1` [Example 2d, 2-Amino-3,5-dihydro-7-(4-chlorophenylmethyl)-4H-pyrrolo[3,2-d]pyrimidin-4-one], the IC50 with CCRF-CEM Cells (8-unsubstituted compounds) amounted to 0.7 µM.

As for `Nc1nc2c(Cc3ccc(Cl)c(Cl)c3)c[nH]c2c(=O)[nH]1` [Example 2i, 2-Amino-3,5-dihydro-7-(3,4-dichlorophenylmethyl)-4H-pyrrolo[3,2-d]pyrimidin-4-one], the IC50 at PNP (Calf spleen) (setting [2]) came to 1 µM.

Take `Nc1nc2c(Cc3cccc(C(F)(F)F)c3)c[nH]c2c(=O)[nH]1` [Example 2h, 2-Amino-3,5-dihydro-7-(3-trifluoromethylphenylmethyl)-4H-pyrrolo[3,2-d]pyrimidin-4-one]: the half-maximal inhibitory concentration (IC50) at PNP (Calf spleen) (setting [2]) amounted to 0.25 µM.

As to `Nc1nc2c(Cc3ccsc3)c(N)[nH]c2c(=O)[nH]1` [Example 3-Thienyl, reference compound], in the experiment on CCRF-CEM Cells (setting [3]), the IC50 was over 20 µM.

In the case of `Nc1nc2c(Cc3ccccc3)c(N)[nH]c2c(=O)[nH]1` [Phenyl, reference compound], the IC50 was over 15 µM in the experiment with CCRF-CEM Cells (setting [3]) and 7.7 µM against PNP (Calf spleen).

As for `Nc1nc2c(Cc3cccs3)c[nH]c2c(=O)[nH]1` [Example 2k, 2-Amino-3,5-dihydro-7-(2-thienylmethyl)-4H-pyrrolo-[3,2-d]pyrimidin-4-one], the IC50 in the experiment on CCRF-CEM Cells (8-unsubstituted compounds) came out at 0.3 µM.

With `Nc1nc2c(Cc3cccc(O)c3)c[nH]c2c(=O)[nH]1` [Example 3b, 2-amino-3,5-dihydro-7-(3-hydroxyphenylmethyl)-4H-pyrrolo[3,2-d]pyrimidin-4-one], in the experiment on CCRF-CEM Cells (8-unsubstituted compounds), the IC50 is 1.7 µM.

In the case of `Nc1nc(O)c2[nH]cc(Cc3ccccc3Cl)c2n1` [Example 2m, 2-Amino-3,5-dihydro-7-(2-chlorophenylmethyl)-4H-pyrrolo[3,2-d]pyrimidin-4-one], the half-inhibitory concentration (IC50) on PNP (Calf spleen) (setting [2]) came out at 2.3 µM.

With `Nc1nc2c(Cc3ccccc3O)c[nH]c2c(=O)[nH]1` [Example 3c, 2-amino-3,5-dihydro-7-(2-hydroxyphenylmethyl)-4H-pyrrolo[3,2-d]pyrimidin-4-one], the IC50 at PNP (Calf spleen) (setting [2]) came out at 1.95 µM.

As to `Nc1nc2c(Cc3ccsc3)c[nH]c2c(=O)[nH]1` [Example 2l, 2-Amino-3,5-dihydro-7-(3-thienylmethyl)-4H-pyrrolo-[3,2-d]pyrimidin-4-one], the IC50 with CCRF-CEM Cells (8-unsubstituted compounds) was 2 µM; at PNP (Calf spleen) (setting [1]), 0.08 µM.

Turning to `Nc1nc2c(Cc3cccc(Cl)c3)c[nH]c2c(=O)[nH]1` [Example 1, 2-amino-3,5-dihydro-7-(3-chlorophenylmethyl)-4H-pyrrolo[3,2d-]pyrimidin-4-one], the results for the half-inhibitory concentration (IC50) in the experiment on CCRF-CEM Cells (8-unsubstituted compounds) and against PNP (Calf spleen) were 0.8 µM and 0.14 µM, respectively.
